Tests used:
SMARCA4 = molecular target: T1, SMARCA4 (Homo sapiens, UniProt P51532); assay: Cellular degradation assay, SMARCA4 (Table 1); format: cell-based
T1 construct: endogenous in cells

SMARCA2 = molecular target: T2, SMARCA2 (Homo sapiens, UniProt P51531); assay: SMARCA2 Cellular Degradation Assay (Western blot analysis on Jess platform); format: cell-based; details: for DC50 / Dmax: cellular degradation; for Fold Selectivity SMARCA4/2: ratio DC50 SMARCA4 / DC50 SMARCA2
T2 construct: endogenous in cells
How it was run: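 Percent SMARCA2 remaining relative to vehicle was derived from capillary Western peak areas, each normalized to β-actin after capillary background subtraction. Samples were tumor-derived cell lysates, 5 μg total protein loaded, heated at 95° C. for 5 minutes before the Jess run.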

T1 sequence (P51532 whole entry, species assumed): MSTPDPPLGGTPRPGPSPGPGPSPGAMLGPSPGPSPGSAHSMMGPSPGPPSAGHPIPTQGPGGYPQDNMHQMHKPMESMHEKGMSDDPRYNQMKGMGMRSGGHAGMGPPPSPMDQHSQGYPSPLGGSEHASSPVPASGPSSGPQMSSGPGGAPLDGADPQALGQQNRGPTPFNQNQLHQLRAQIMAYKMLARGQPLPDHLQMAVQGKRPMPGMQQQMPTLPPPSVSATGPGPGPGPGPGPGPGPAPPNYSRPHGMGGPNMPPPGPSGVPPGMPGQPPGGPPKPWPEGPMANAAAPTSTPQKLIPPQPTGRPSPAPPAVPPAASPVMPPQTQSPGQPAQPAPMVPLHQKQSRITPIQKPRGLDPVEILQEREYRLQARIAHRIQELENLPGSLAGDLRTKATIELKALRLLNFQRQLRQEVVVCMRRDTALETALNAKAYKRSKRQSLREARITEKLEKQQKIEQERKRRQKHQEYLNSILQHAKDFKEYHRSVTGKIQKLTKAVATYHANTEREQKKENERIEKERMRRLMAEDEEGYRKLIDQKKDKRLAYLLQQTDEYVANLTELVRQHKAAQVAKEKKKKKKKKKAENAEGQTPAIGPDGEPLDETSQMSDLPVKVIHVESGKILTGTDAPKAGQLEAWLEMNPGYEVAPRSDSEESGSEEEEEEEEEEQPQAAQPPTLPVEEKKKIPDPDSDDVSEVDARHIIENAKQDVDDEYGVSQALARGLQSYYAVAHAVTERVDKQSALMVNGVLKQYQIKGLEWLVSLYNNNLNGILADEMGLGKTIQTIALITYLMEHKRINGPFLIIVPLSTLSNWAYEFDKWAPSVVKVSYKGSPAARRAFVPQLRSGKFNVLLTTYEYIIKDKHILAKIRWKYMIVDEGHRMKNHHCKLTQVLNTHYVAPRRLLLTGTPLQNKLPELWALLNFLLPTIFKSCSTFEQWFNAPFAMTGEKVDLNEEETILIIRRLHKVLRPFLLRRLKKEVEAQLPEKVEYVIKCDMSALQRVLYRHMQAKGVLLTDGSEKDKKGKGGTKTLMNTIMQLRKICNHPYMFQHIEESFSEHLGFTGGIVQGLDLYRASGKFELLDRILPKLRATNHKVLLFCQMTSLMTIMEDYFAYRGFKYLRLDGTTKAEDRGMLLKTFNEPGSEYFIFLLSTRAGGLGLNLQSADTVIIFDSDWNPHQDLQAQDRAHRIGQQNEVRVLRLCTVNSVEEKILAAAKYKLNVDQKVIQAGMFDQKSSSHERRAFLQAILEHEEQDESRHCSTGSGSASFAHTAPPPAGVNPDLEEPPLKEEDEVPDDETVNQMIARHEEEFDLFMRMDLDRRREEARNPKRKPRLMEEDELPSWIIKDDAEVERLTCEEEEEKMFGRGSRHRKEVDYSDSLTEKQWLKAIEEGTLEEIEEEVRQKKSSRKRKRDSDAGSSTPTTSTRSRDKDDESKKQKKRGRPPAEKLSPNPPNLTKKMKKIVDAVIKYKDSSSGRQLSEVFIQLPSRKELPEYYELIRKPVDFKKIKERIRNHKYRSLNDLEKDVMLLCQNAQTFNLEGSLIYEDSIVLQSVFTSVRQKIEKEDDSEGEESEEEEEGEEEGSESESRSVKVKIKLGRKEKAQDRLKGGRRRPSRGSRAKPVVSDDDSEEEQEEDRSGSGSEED
T2 sequence (P51531 whole entry, species assumed): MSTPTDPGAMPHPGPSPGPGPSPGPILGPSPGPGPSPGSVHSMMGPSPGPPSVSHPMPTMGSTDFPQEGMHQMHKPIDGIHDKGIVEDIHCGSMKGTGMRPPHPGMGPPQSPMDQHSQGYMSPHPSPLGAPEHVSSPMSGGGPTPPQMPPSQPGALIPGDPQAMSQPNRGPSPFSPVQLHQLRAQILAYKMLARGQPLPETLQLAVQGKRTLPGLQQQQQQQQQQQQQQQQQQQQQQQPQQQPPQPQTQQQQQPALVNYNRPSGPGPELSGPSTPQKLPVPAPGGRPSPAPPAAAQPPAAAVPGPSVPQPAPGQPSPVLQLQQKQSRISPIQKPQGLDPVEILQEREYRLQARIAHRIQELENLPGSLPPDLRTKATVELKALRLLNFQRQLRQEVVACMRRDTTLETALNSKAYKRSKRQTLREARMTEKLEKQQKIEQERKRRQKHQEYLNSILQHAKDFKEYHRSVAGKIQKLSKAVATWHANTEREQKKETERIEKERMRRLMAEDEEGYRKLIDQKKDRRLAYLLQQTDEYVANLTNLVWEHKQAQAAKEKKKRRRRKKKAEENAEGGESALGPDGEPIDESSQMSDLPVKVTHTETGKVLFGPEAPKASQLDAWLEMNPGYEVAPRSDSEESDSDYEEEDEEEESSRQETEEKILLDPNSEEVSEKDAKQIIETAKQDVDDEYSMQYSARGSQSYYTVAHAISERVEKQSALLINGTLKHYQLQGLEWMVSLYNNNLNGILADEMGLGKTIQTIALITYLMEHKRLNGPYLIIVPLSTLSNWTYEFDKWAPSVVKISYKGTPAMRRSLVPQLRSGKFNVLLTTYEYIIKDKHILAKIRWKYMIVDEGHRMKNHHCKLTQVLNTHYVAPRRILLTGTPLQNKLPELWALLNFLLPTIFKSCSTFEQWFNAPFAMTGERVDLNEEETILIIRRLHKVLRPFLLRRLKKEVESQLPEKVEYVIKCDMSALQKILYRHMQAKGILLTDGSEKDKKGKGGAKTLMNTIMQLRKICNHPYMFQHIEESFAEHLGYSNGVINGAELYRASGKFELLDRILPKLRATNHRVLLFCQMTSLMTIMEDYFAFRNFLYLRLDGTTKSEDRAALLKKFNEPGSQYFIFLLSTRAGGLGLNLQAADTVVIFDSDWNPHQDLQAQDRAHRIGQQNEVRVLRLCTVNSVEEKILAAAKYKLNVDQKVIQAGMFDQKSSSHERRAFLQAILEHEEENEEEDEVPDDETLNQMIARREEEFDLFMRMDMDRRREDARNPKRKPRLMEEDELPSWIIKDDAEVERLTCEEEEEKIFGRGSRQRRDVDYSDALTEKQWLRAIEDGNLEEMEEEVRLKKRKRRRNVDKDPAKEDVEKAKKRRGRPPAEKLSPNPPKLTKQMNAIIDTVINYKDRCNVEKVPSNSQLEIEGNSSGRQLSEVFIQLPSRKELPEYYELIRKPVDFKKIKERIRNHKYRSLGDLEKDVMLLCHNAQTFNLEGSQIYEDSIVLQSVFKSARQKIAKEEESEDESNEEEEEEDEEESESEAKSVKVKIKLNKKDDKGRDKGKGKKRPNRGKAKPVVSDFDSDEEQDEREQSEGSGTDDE

Compound | DC50 (SMARCA4) [nM] | Dmax (SMARCA4) [%] | DC50 (SMARCA2) [nM] | Dmax (SMARCA2) [%] | Fold Selectivity SMARCA4/2 (SMARCA2)
CC(C)c1cc(C2(C(=O)N3CC4(CN(CC5CCN(c6ccc(C7CCC(=O)NC7=O)cc6)CC5)C4)C3)CCN(c3cnnc(-c4ccccc4O)c3)CC2)no1 (racemic) [Example 92, rac-(3R)-3-(4-{4-[(6-{1-[6-(2-hydroxyphenyl)pyridazin-4-yl]-4-[5-(propan-2-yl)-1,2-oxazol-3-yl]piperidine-4-carbonyl}-2,6-diazaspiro[3.3]heptan-2-yl)methyl]piperidin-1-yl}phenyl)piperidine-2,6-dione] | 92.5 | 50.2 | 4.81 | 80.8 | 19
Cn1nccc1C1(C(=O)N2CC3(CN(CC4CCN(c5ccc(C6CCC(=O)NC6=O)cc5)CC4)C3)C2)CCN(c2cnnc(-c3ccccc3O)c2)CC1 (racemic) [Example 93, rac-(3R)-3-(4-{4-[(6-{1-[6-(2-hydroxyphenyl)pyridazin-4-yl]-4-(1-methyl-1H-pyrazol-5-yl)piperidine-4-carbonyl}-2,6-diazaspiro[3.3]heptan-2-yl)methyl]piperidin-1-yl}phenyl)piperidine-2,6-dione] |  | 33.8 | 21.1 | 69.8 | 474
CN(C(=O)C1(c2cnn(C)c2)CCN(c2cnnc(-c3ccccc3O)c2)CC1)C1CCN(CCC2CCN(c3ccc(C4CCC(=O)NC4=O)cc3)CC2)CC1 (racemic) [Example 94, rac-N-{1-[2-(1-{4-[(3R)-2,6-dioxopiperidin-3-yl]phenyl}piperidin-4-yl)ethyl]piperidin-4-yl}-1-[6-(2-hydroxyphenyl)pyridazin-4-yl]-N-methyl-4-(1-methyl-1H-pyrazol-4-yl)piperidine-4-carboxamide] |  | 33 | 2.24 | 87.3 | 4454
Cc1ccnn1C1(C(=O)N(C)C2CCN(CC3CCN(c4ccc(C5CCC(=O)NC5=O)cc4)CC3)CC2)CCN(c2cnnc(-c3ccccc3O)c2)CC1 (racemic) [Example 96, rac-N-{1-[(1-{4-[(3R)-2,6-dioxopiperidin-3-yl]phenyl}piperidin-4-yl)methyl]piperidin-4-yl}-1-[6-(2-hydroxyphenyl)pyridazin-4-yl]-N-methyl-4-(5-methyl-1H-pyrazol-1-yl)piperidine-4-carboxamide] | 39.6 | 60 | 4.3 | 87.1 | 9
CN(C(=O)C1(c2cc3ccccn3n2)CCN(c2cnnc(-c3ccccc3O)c2)CC1)C1CCN(CC2CCN(c3ccc(C4CCC(=O)NC4=O)cc3)CC2)CC1 (racemic) [Example 97, rac-N-{1-[(1-{4-[(3R)-2,6-dioxopiperidin-3-yl]phenyl}piperidin-4-yl)methyl]piperidin-4-yl}-1-[6-(2-hydroxyphenyl)pyridazin-4-yl]-N-methyl-4-{pyrazolo[1,5-a]pyridin-2-yl}piperidine-4-carboxamide] | 20.7 | 65.8 | 3.14 | 86.6 | 7
CC(C)c1cc(C2(C(=O)N(C)C3CCN(CC4CCN(c5ccc(C6CCC(=O)NC6=O)cc5)CC4)CC3)CCN(c3cnnc(-c4ccccc4O)c3)CC2)no1 (racemic) [Example 98, rac-N-{1-[(1-{4-[(3R)-2,6-dioxopiperidin-3-yl]phenyl}piperidin-4-yl)methyl]piperidin-4-yl}-1-[6-(2-hydroxyphenyl)pyridazin-4-yl]-N-methyl-4-[5-(propan-2-yl)-1,2-oxazol-3-yl]piperidine-4-carboxamide] | 57.9 | 58.1 | 5.55 | 86.7 | 10

Continued, values first:

DC50 (SMARCA4) [nM] | Dmax (SMARCA4) [%] | DC50 (SMARCA2) [nM] | Dmax (SMARCA2) [%] | Fold Selectivity SMARCA4/2 (SMARCA2) | Compound
 | 46.9 | 48.1 | 57.3 | 208 | CC1(NC(=O)C2(c3ccccc3)CCN(c3cnnc(-c4ccccc4O)c3)CC2)CCN(CC2CCN(c3ccc(N[C@@H]4CCC(=O)NC4=O)cn3)CC2)CC1 (racemic) [Example 99, rac-(r)-n-(1-((1-(5-((2,6-dioxopiperidin-3-yl)amino)pyridin-2-yl)piperidin-4-yl)methyl)-4-methylpiperidin-4-yl)-1-(6-(2-hydroxyphenyl)pyridazin-4-yl)-4-phenylpiperidine-4-carboxamide]
114 | 60.2 | 19.5 | 71 | 6 | O=C1CC[C@@H](c2cccc(N3CCC(CN4CCC5(CC4)CN(C(=O)C4(c6ccccc6)CCN(c6cnnc(-c7ccccc7O)c6)CC4)C5)CC3)c2)C(=O)N1 (racemic) [Example 101, rac-®-3-(3-(4-((2-(1-(6-(2-hydroxyphenyl)pyridazin-4-yl)-4-phenylpiperidine-4-carbonyl)-2,7-diazaspiro[3.5]nonan-7-yl)methyl)piperidin-1-yl)phenyl)piperidine-2,6-dione]
295 | 54.4 | 26.3 | 77.7 | 11 | CN(C(=O)C1(c2ccccc2)CCN(c2cnnc(-c3ccccc3O)c2)CC1)C1CCN(CC2CCN(c3cccc([C@@H]4CCC(=O)NC4=O)c3)CC2)CC1 (racemic) [Example 102, rac-(r)-n-(1-((1-(3-(2,6-dioxopiperidin-3-yl)phenyl)piperidin-4-yl)methyl)piperidin-4-yl)-1-(6-(2-hydroxyphenyl)pyridazin-4-yl)-n-methyl-4-phenylpiperidine-4-carboxamide]
129 | 68.4 | 15.7 | 87.4 | 8 | O=C1CC[C@H](c2ccc(N3CCC(CCN4CCC(Oc5ccccc5)(C(=O)NCC5(c6ccccc6)CCN(c6cnnc(-c7ccccc7O)c6)CC5)CC4)CC3)cc2)C(=O)N1 (racemic) [Example 103, rac-(r)-1-(2-(1-(4-(2,6-dioxopiperidin-3-yl)phenyl)piperidin-4-yl)ethyl)-n-((1-(6-(2-hydroxyphenyl)pyridazin-4-yl)-4-phenylpiperidin-4-yl)methyl)-4-phenoxypiperidine-4-carboxamide]
 | 50 | 7.3 | 81.8 | 1370 | O=C1CC[C@H](c2ccc(N3CCC(CCN4CCC(C(=O)NCC5(c6ccccc6)CCN(c6cnnc(-c7ccccc7O)c6)CC5)CC45CCOCC5)CC3)cc2)C(=O)N1 (mixture of isomers) [Example 104, rac-1-(2-(1-(4-((r)-2,6-dioxopiperidin-3-yl)phenyl)piperidin-4-yl)ethyl)-n-((1-(6-(2-hydroxyphenyl)pyridazin-4-yl)-4-phenylpiperidin-4-yl)methyl)-9-oxa-1-azaspiro[5.5]undecane-4-carboxamide]
57.5 | 73.1 | 4.98 | 92.2 | 12 | O=C1CC[C@H](c2ccc(N3CCC(CCN4CCC(OCC(F)(F)F)(C(=O)NCC5(c6ccccc6)CCN(c6cnnc(-c7ccccc7O)c6)CC5)CC4)CC3)cc2)C(=O)N1 (racemic) [Example 105, rac-(r)-1-(2-(1-(4-(2,6-dioxopiperidin-3-yl)phenyl)piperidin-4-yl)ethyl)-n-((1-(6-(2-hydroxyphenyl)pyridazin-4-yl)-4-phenylpiperidin-4-yl)methyl)-4-(2,2,2-trifluoroethoxy)piperidine-4-carboxamide]
32.2 | 59.4 | 4.91 | 78.3 | 7 | COc1ccccc1C1(C(=O)N2CC3(C2)CN(C2COC4(CCN(c5ccc([C@H]6CCC(=O)NC6=O)cc5)CC4)C2)C3)CCN(c2cnnc(-c3ccccc3O)c2)CC1 (mixture of isomers) [Example 106, (3R)-3-{4-[(3RS)-3-(6-{1-[6-(2-hydroxyphenyl)pyridazin-4-yl]-4-(2-methoxyphenyl)piperidine-4-carbonyl}-2,6-diazaspiro[3.3]heptan-2-yl)-1-oxa-8-azaspiro[4.5]decan-8-yl]phenyl}piperidine-2,6-dione]
 | 29.4 | 41.3 | 58.8 | 242 | O=C1CC[C@H](c2ccc(N3CCC(CCN4CCC[C@@H]4C(=O)NCC4(c5ccccc5)CCN(c5cnnc(-c6ccccc6O)c5)CC4)CC3)cc2)C(=O)N1 (racemic) [Example 107, (r)-1-(2-(1-(4-((rs)-2,6-dioxopiperidin-3-yl)phenyl)piperidin-4-yl)ethyl)-n-((1-(6-(2-hydroxyphenyl)pyridazin-4-yl)-4-phenylpiperidin-4-yl)methyl)pyrrolidine-2-carboxamide]
179 | 52.5 | 23.4 | 66.5 | 8 | O=C1CCC(Nc2ccc(C3CCN(CC(=O)N4CCC5(CC4)CN(C(=O)C4(c6ccccc6)CCN(c6cnnc(-c7ccccc7O)c6)CC4)C5)CC3)cc2)C(=O)N1 (racemic) [Example 108, rac-(r)-3-((4-(1-(2-(2-(1-(6-(2-hydroxyphenyl)pyridazin-4-yl)-4-phenylpiperidine-4-carbonyl)-2,7-diazaspiro[3.5]nonan-7-yl)-2-oxoethyl)piperidin-4-yl)phenyl)amino)piperidine-2,6-dione]
498 | 67.1 | 76.9 | 82.7 | 6 | O=C1CC[C@H](c2ccc(C3CCN(CC(=O)N4CCC(S(=O)(=O)NCC5(c6ccccc6)CCN(c6cnnc(-c7ccccc7O)c6)CC5)CC4)CC3)cc2)C(=O)N1 (racemic) [Example 109, rac-1-(2-(4-(4-(2,6-dioxopiperidin-3-yl)phenyl)piperidin-1-yl)acetyl)-n-((1-(6-(2-hydroxyphenyl)pyridazin-4-yl)-4-phenylpiperidin-4-yl)methyl)piperidine-4-sulfonamide]

— patent US20250051344A1, “BIFUNCTIONAL SELECTIVE DEGRADERS OF SMARCA2 AND THERAPEUTIC USES THEREOF” (Nurix Therapeutics, Inc., priority 2023, published 2025)
